The source of these data is patent US12723063B2, “GIPR-agonist compounds” (Eli Lilly and Company, priority 2019, dated 2026).

*1 amine or outer side, *2 acyl side, *3 side chain or, on linkers, in order; H or OH if unused. Where a SMILES comes first, the peptide text is derived from it. Side-chain parts run from the residue outwards. [ ]: non-standard residue; d: D form. The star is where a group is joined. C20 diacid = O=C(O)CCCCCCCCCCCCCCCCCCC(=O)*; αMePhe(2-F) = C[C@](N)(Cc1ccccc1F)C(=O)O; γGlu = O=C(O)[C@H](CCC(=O)[*:2])N[*:1]; αMeF = C[C@](N)(Cc1ccccc1)C(=O)O; 4Pal = N[C@@H](Cc1ccncc1)C(=O)O; αMeL = CC(C)C[C@](C)(N)C(=O)O; AEEA = NCCOCCOCC(=O)O; Aib = CC(C)(N)C(=O)O

Holding throughout (assay): cAMP functional assay (HTRF) in HEK293 cells in presence of 0.1% casein
Format in all cases: cell-based
For orientation: Time-resolved FRET reads energy transfer from a long-lived donor to a nearby acceptor.

Experiment [1] addresses T1, human GLP-1 receptor (GLP-1R) (Homo sapiens, UniProt P43220).
T1 construct: expressed in transfected cells; host or cells: HEK293
As to conditions: HEK293 cells expressing human GLP-1R, geometric mean, read-out: hGLP1R cAMP Rel EC50 nM (SEM, n).

Experiment [2] addresses T2, human glucagon receptor (GcgR) (Homo sapiens, UniProt P47871).
T2 construct: expressed in transfected cells; host or cells: HEK293
As to conditions: HEK293 cells expressing human GcgR, geometric mean, read-out: hGcgR cAMP Rel EC50 nM (SEM, n).

Experiment [3] has as its target T3, human glucose-dependent insulinotropic peptide receptor (GIPR) (Homo sapiens, UniProt P48546).
T3 construct: expressed in transfected cells; host or cells: HEK293
T3 sequence (P48546 22-466): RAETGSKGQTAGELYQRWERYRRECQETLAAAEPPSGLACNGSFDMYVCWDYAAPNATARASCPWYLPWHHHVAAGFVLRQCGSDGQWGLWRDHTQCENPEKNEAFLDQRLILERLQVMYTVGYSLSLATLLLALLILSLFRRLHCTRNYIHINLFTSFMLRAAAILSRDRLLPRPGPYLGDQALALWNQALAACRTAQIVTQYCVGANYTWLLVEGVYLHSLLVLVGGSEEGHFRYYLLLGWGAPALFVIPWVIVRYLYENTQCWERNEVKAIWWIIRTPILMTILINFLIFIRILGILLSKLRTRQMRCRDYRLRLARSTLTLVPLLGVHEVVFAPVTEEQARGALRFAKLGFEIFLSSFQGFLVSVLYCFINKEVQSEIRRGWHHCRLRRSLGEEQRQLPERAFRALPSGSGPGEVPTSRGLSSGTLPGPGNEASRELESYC
As to conditions: HEK293 cells expressing human GIPR, geometric mean, read-out: hGIPR cAMP Rel EC50 nM (SEM, n).

T2 sequence (P47871 26-477): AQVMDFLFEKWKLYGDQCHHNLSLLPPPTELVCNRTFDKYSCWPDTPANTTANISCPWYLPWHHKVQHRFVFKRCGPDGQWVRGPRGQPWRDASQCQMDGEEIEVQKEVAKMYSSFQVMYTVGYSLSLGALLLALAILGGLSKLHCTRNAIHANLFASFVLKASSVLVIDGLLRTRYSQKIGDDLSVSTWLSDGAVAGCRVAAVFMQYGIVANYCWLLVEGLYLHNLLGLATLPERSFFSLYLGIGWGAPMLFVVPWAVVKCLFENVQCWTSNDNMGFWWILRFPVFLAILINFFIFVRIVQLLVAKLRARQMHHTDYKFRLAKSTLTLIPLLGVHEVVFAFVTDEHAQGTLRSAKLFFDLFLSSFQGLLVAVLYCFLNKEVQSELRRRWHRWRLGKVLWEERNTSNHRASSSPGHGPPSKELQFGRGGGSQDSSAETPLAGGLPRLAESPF
T1 sequence (P43220 24-463): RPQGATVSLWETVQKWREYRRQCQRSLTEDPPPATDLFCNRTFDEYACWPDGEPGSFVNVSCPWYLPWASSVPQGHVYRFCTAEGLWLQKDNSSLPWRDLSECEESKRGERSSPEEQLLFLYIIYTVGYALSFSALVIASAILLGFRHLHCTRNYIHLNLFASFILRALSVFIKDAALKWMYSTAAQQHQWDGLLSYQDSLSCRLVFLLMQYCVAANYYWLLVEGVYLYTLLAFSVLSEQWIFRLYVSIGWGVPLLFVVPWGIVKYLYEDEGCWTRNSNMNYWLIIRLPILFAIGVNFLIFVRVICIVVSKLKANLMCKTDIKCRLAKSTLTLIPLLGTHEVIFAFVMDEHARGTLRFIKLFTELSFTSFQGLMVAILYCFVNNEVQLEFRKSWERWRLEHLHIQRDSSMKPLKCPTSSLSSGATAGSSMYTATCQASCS

Take `CC[C@H](C)[C@H](NC(=O)[C@H](CO)NC(=O)[C@H](Cc1ccc(O)cc1)NC(=O)[C@H](CC(=O)O)NC(=O)[C@H](CO)NC(=O)[C@@H](NC(=O)[C@](C)(Cc1ccccc1)NC(=O)[C@@H](NC(=O)CNC(=O)[C@H](CCC(=O)O)NC(=O)C(C)(C)NC(=O)[C@@H](N)Cc1ccc(O)cc1)[C@@H](C)O)[C@@H](C)CC)C(=O)N[C@@H](C)C(=O)N[C@@H](CC(C)C)C(=O)N[C@@H](CC(=O)O)C(=O)N[C@@H](CCCCN)C(=O)N[C@@H](CCCCNC(=O)COCCOCCNC(=O)COCCOCCNC(=O)CC[C@H](NC(=O)CCCCCCCCCCCCCCCCCCC(=O)O)C(=O)O)C(=O)N[C@@H](Cc1c[nH]cn1)C(=O)N[C@@H](CCC(N)=O)C(=O)NC(C)(C)C(=O)N[C@@H](CC(=O)O)C(=O)N[C@@H](Cc1ccccc1)C(=O)N[C@H](C(=O)N[C@@H](CCC(=O)O)C(=O)N[C@@H](Cc1ccncc1)C(=O)N[C@@H](CC(C)C)C(=O)N[C@@H](CC(C)C)C(=O)N[C@@H](CCC(=O)O)C(=O)N[C@H](C(=O)NCC(=O)N1CCC[C@H]1C(=O)N[C@@H](CO)C(=O)N[C@@H](CO)C(=O)NCC(=O)N[C@@H](C)C(=O)N1CCC[C@H]1C(=O)N1CCC[C@H]1C(=O)N1CCC[C@H]1C(=O)N[C@@H](CO)C(N)=O)[C@@H](C)O)C(C)C` [Example 41] (H-Y[Aib]EGT[αMeF]ISDYSIALDKK([AEEA-AEEA-γGlu-C20 diacid])HQ[Aib]DFVE[4Pal]LLETGPSSGAPPPS-NH2): the EC50 in experiment [1] is 1800 nM; in experiment [2], above 5000 nM; in experiment [3], 0.0281 nM.

As for `CC[C@H](C)[C@H](NC(=O)[C@H](CO)NC(=O)[C@H](Cc1ccc(O)cc1)NC(=O)[C@H](CC(=O)O)NC(=O)[C@H](CO)NC(=O)[C@@H](NC(=O)[C@](C)(Cc1ccccc1F)NC(=O)[C@@H](NC(=O)CNC(=O)[C@H](CCC(=O)O)NC(=O)C(C)(C)NC(=O)[C@@H](N)Cc1ccc(O)cc1)[C@@H](C)O)[C@@H](C)CC)C(=O)N[C@@H](C)C(=O)N[C@@H](CC(C)C)C(=O)N[C@@H](CC(=O)O)C(=O)N[C@@H](CCCCN)C(=O)N[C@@H](CCCCNC(=O)COCCOCCNC(=O)COCCOCCNC(=O)CC[C@H](NC(=O)CCCCCCCCCCCCCCCCCCC(=O)O)C(=O)O)C(=O)N[C@@H](Cc1c[nH]cn1)C(=O)N[C@@H](CCC(N)=O)C(=O)NC(C)(C)C(=O)N[C@@H](CCC(=O)O)C(=O)N[C@@H](Cc1ccccc1)C(=O)N[C@H](C(=O)N[C@@H](CC(N)=O)C(=O)N[C@@H](Cc1ccc(O)cc1)C(=O)N[C@@H](CC(C)C)C(=O)N[C@@H](CC(C)C)C(=O)N[C@@H](C)C(=O)N[C@H](C(=O)NCC(=O)N1CCC[C@H]1C(=O)N[C@@H](CO)C(=O)N[C@@H](CO)C(=O)NCC(=O)N[C@@H](C)C(=O)N1CCC[C@H]1C(=O)N1CCC[C@H]1C(=O)N1CCC[C@H]1C(=O)N[C@@H](CO)C(N)=O)[C@@H](C)O)C(C)C` [Example 34] (H-Y[Aib]EGT[αMePhe(2-F)]ISDYSIALDKK([AEEA-AEEA-γGlu-C20 diacid])HQ[Aib]EFVNYLLATGPSSGAPPPS-NH2), the half-maximal effective concentration (EC50) was determined as 462 nM in experiment [1], 913 nM in experiment [2] and 0.0177 nM in experiment [3].

Turning to `CC[C@H](C)[C@H](NC(=O)[C@H](Cc1ccccc1)NC(=O)[C@@H](NC(=O)CNC(=O)[C@H](CCC(=O)O)NC(=O)C(C)(C)NC(=O)[C@@H](N)Cc1ccc(O)cc1)[C@@H](C)O)C(=O)N[C@@H](CO)C(=O)N[C@@H](CC(=O)O)C(=O)N[C@@H](Cc1ccc(O)cc1)C(=O)N[C@@H](CO)C(=O)N[C@H](C(=O)N[C@@](C)(CC(C)C)C(=O)N[C@@H](CC(C)C)C(=O)N[C@@H](CC(=O)O)C(=O)N[C@@H](CCCCN)C(=O)N[C@@H](CCCCNC(=O)COCCOCCNC(=O)COCCOCCNC(=O)CC[C@H](NC(=O)CCCCCCCCCCCCCCCCCCC(=O)O)C(=O)O)C(=O)N[C@@H](Cc1c[nH]cn1)C(=O)N[C@@H](CCC(N)=O)C(=O)NC(C)(C)C(=O)N[C@@H](CC(=O)O)C(=O)N[C@@H](Cc1ccccc1)C(=O)N[C@H](C(=O)N[C@@H](CCC(=O)O)C(=O)N[C@@H](Cc1c[nH]c2ccccc12)C(=O)N[C@@H](CC(C)C)C(=O)N[C@@H](CC(C)C)C(=O)N[C@@H](C)C(=O)NCC(=O)NCC(=O)N1CCC[C@H]1C(=O)N[C@@H](CO)C(=O)N[C@@H](CO)C(=O)NCC(=O)N[C@@H](C)C(=O)N1CCC[C@H]1C(=O)N1CCC[C@H]1C(=O)N1CCC[C@H]1C(=O)N[C@@H](CO)C(N)=O)C(C)C)[C@@H](C)CC` [Example 54] (H-Y[Aib]EGTFISDYSI[αMeL]LDKK([AEEA-AEEA-γGlu-C20 diacid])HQ[Aib]DFVEWLLAGGPSSGAPPPS-NH2), the results for the EC50 in experiment [1], in experiment [2] and in experiment [3] were above 5000 nM, above 5000 nM and 0.054 nM, respectively.

For the compound `CC[C@H](C)[C@H](NC(=O)[C@H](CO)NC(=O)[C@H](Cc1ccc(O)cc1)NC(=O)[C@H](CC(=O)O)NC(=O)[C@H](CO)NC(=O)[C@@H](NC(=O)[C@](C)(Cc1ccccc1F)NC(=O)[C@@H](NC(=O)CNC(=O)[C@H](CCC(=O)O)NC(=O)C(C)(C)NC(=O)[C@@H](N)Cc1ccc(O)cc1)[C@@H](C)O)[C@@H](C)CC)C(=O)N[C@@H](C)C(=O)N[C@@H](CC(C)C)C(=O)N[C@@H](CC(=O)O)C(=O)N[C@@H](CCCCN)C(=O)N[C@@H](CCCCNC(=O)COCCOCCNC(=O)COCCOCCNC(=O)CC[C@H](NC(=O)CCCCCCCCCCCCCCCCCCC(=O)O)C(=O)O)C(=O)N[C@@H](Cc1c[nH]cn1)C(=O)N[C@@H](CCC(N)=O)C(=O)NC(C)(C)C(=O)N[C@@H](CC(=O)O)C(=O)N[C@@H](Cc1ccccc1)C(=O)N[C@H](C(=O)N[C@@H](CCC(=O)O)C(=O)N[C@@H](Cc1ccc(O)cc1)C(=O)N[C@@H](CC(C)C)C(=O)N[C@@H](CC(C)C)C(=O)N[C@@H](CCC(=O)O)C(=O)N[C@H](C(=O)NCC(=O)N1CCC[C@H]1C(=O)N[C@@H](CO)C(=O)N[C@@H](CO)C(=O)NCC(=O)N[C@@H](C)C(=O)N1CCC[C@H]1C(=O)N1CCC[C@H]1C(=O)N1CCC[C@H]1C(=O)N[C@@H](CO)C(N)=O)[C@@H](C)O)C(C)C` [Example 36] (H-Y[Aib]EGT[αMePhe(2-F)]ISDYSIALDKK([AEEA-AEEA-γGlu-C20 diacid])HQ[Aib]DFVEYLLETGPSSGAPPPS-NH2), the EC50 in experiment [1] was 1080 nM; in experiment [2], above 5000 nM; in experiment [3], 0.0543 nM.

Take `CC[C@H](C)[C@H](NC(=O)[C@H](Cc1ccccc1)NC(=O)[C@@H](NC(=O)CNC(=O)[C@H](CCC(=O)O)NC(=O)C(C)(C)NC(=O)[C@@H](N)Cc1ccc(O)cc1)[C@@H](C)O)C(=O)N[C@@H](CO)C(=O)N[C@@H](CC(=O)O)C(=O)N[C@@H](Cc1ccc(O)cc1)C(=O)N[C@@H](CO)C(=O)N[C@H](C(=O)N[C@@](C)(CC(C)C)C(=O)N[C@@H](CC(C)C)C(=O)N[C@@H](CC(=O)O)C(=O)N[C@@H](CCCCN)C(=O)N[C@@H](CCCCNC(=O)COCCOCCNC(=O)COCCOCCNC(=O)CC[C@H](NC(=O)CCCCCCCCCCCCCCCCCCC(=O)O)C(=O)O)C(=O)N[C@@H](Cc1c[nH]cn1)C(=O)N[C@@H](CCC(N)=O)C(=O)NC(C)(C)C(=O)N[C@@H](CC(=O)O)C(=O)N[C@@H](Cc1ccccc1)C(=O)N[C@H](C(=O)N[C@@H](CCC(=O)O)C(=O)N[C@@H](Cc1ccncc1)C(=O)N[C@@H](CC(C)C)C(=O)N[C@@H](CC(C)C)C(=O)N[C@@H](C)C(=O)N[C@H](C(=O)NCC(=O)N1CCC[C@H]1C(=O)N[C@@H](CO)C(=O)N[C@@H](CO)C(=O)NCC(=O)N[C@@H](C)C(=O)N1CCC[C@H]1C(=O)N1CCC[C@H]1C(=O)N1CCC[C@H]1C(=O)N[C@@H](CO)C(N)=O)[C@@H](C)O)C(C)C)[C@@H](C)CC` [Example 70] (H-Y[Aib]EGTFISDYSI[αMeL]LDKK([AEEA-AEEA-γGlu-C20 diacid])HQ[Aib]DFVE[4Pal]LLATGPSSGAPPPS-NH2): the results for the EC50 in experiment [1], in experiment [2] and in experiment [3] were above 5000 nM, 3560 nM and 0.0254 nM, respectively.

By EC50 is commonly meant the concentration at which the effect is half-maximal.
